Reference: publication PMC4287394 (Clinical cancer research : an official journal of the …, 2014)
“And” between values parts separate entries of the source, which are not always exact repeats. Equal entries are not always repeated.

Test: Phase I safety: adverse events, DLT, MTD, RP2D
Assay type: in vivo, human
Conditions: for Patients with DLT (grade 3 maculopapular rash): 21/28 schedule
[1] = 330mg 21/28, 7 patients, grade ≥3
[2] = 330mg 28/28, 10 patients, all grades
[3] = 330mg 28/28, 10 patients, grade ≥3
[4] = 330mg once-daily 28/28, 10 patients
[5] = 340mg 28/28, 7 patients, all grades
[6] = 340mg 28/28, 7 patients, grade ≥3
[7] = 400mg 28/28, 1 patient, all grades
[8] = 450mg 21/28, 3 patients, all grades
[9] = 450mg 21/28, 3 patients, grade ≥3
[10] = all dose levels 21 or 28/28, 60 patients, all grades
[11] = all dose levels 21 or 28/28, 60 patients, grade ≥3

## CS(=O)(=O)N1CCN(Cc2cc3nc(-c4cccc5[nH]ncc45)nc(N4CCOCC4)c3s2)CC1 [pictilisib, 2-(1H-indazol-4-yl)-6-(4-methanesulfonyl-piperazin-1-ylmethyl)-4-morpholin-4-yl-t hieno[3,2-d]pyrimidine]
[1]
  Any treatment-related adverse event, no. of patients: 2
  Decreased appetite, no. of patients with treatment-related AE: 0
  Diarrhea, no. of patients with treatment-related AE: 0
  Dysgeusia, no. of patients with treatment-related AE: 0
  Fatigue, no. of patients with treatment-related AE: 0
  Nausea, no. of patients with treatment-related AE: 0
  Rash (all rash preferred terms), no. of patients with treatment-related AE: 1
  Vomiting, no. of patients with treatment-related AE: 0
  Xeroderma, no. of patients with treatment-related AE: 0
[2]
  Any treatment-related adverse event, no. of patients: 10
  Decreased appetite, no. of patients with treatment-related AE: 6
  Diarrhea, no. of patients with treatment-related AE: 7
  Dysgeusia, no. of patients with treatment-related AE: 5
  Fatigue, no. of patients with treatment-related AE: 6
  Nausea, no. of patients with treatment-related AE: 9
  Rash (all rash preferred terms), no. of patients with treatment-related AE: 4
  Vomiting, no. of patients with treatment-related AE: 3
  Xeroderma, no. of patients with treatment-related AE: 4
[3]
  Any treatment-related adverse event, no. of patients: 2
  Decreased appetite, no. of patients with treatment-related AE: 0
  Diarrhea, no. of patients with treatment-related AE: 1
  Dysgeusia, no. of patients with treatment-related AE: 0
  Fatigue, no. of patients with treatment-related AE: 0
  Nausea, no. of patients with treatment-related AE: 0
  Rash (all rash preferred terms), no. of patients with treatment-related AE: 2
  Vomiting, no. of patients with treatment-related AE: 0
  Xeroderma, no. of patients with treatment-related AE: 1
[4]
  Patients with grade 1 or 2 rash: 2
  Patients with grade 3 rash (after the DLT-defining window): 2
330mg once-daily, 7 patients
  Patients with DLT (grade 3 maculopapular rash): 1 of 7 and 1
340mg
  Patients with grade 3 pneumonitis: 1
[5]
  Any treatment-related adverse event, no. of patients: 6
  Decreased appetite, no. of patients with treatment-related AE: 3
  Diarrhea, no. of patients with treatment-related AE: 1
  Dysgeusia, no. of patients with treatment-related AE: 2
  Fatigue, no. of patients with treatment-related AE: 3
  Nausea, no. of patients with treatment-related AE: 4
  Rash (all rash preferred terms), no. of patients with treatment-related AE: 1
  Vomiting, no. of patients with treatment-related AE: 4
  Xeroderma, no. of patients with treatment-related AE: 0
[6]
  Any treatment-related adverse event, no. of patients: 2
  Decreased appetite, no. of patients with treatment-related AE: 0
  Diarrhea, no. of patients with treatment-related AE: 0
  Dysgeusia, no. of patients with treatment-related AE: 0
  Fatigue, no. of patients with treatment-related AE: 0
  Nausea, no. of patients with treatment-related AE: 0
  Rash (all rash preferred terms), no. of patients with treatment-related AE: 0
  Vomiting, no. of patients with treatment-related AE: 0
  Xeroderma, no. of patients with treatment-related AE: 0
[7]
  Any treatment-related adverse event, no. of patients: 1
  Decreased appetite, no. of patients with treatment-related AE: 0
  Diarrhea, no. of patients with treatment-related AE: 0
  Dysgeusia, no. of patients with treatment-related AE: 0
  Fatigue, no. of patients with treatment-related AE: 1
  Nausea, no. of patients with treatment-related AE: 1
  Rash (all rash preferred terms), no. of patients with treatment-related AE: 1
  Vomiting, no. of patients with treatment-related AE: 0
  Xeroderma, no. of patients with treatment-related AE: 0
[8]
  Any treatment-related adverse event, no. of patients: 3
  Decreased appetite, no. of patients with treatment-related AE: 1
  Diarrhea, no. of patients with treatment-related AE: 0
  Dysgeusia, no. of patients with treatment-related AE: 1
  Fatigue, no. of patients with treatment-related AE: 2
  Nausea, no. of patients with treatment-related AE: 2
  Rash (all rash preferred terms), no. of patients with treatment-related AE: 3
  Vomiting, no. of patients with treatment-related AE: 2
  Xeroderma, no. of patients with treatment-related AE: 1
[9]
  Any treatment-related adverse event, no. of patients: 2
  Decreased appetite, no. of patients with treatment-related AE: 0
  Diarrhea, no. of patients with treatment-related AE: 0
  Dysgeusia, no. of patients with treatment-related AE: 0
  Fatigue, no. of patients with treatment-related AE: 0
  Nausea, no. of patients with treatment-related AE: 0
  Rash (all rash preferred terms), no. of patients with treatment-related AE: 2
  Vomiting, no. of patients with treatment-related AE: 0
  Xeroderma, no. of patients with treatment-related AE: 0
450mg once-daily 21/28
  Time of presentation of DLT rash after commencement of daily dosing: approximately 2 weeks
  Time to spontaneous resolution of DLT rash after treatment discontinuation: 2 weeks
450mg once-daily 21/28, 2 patients
  Body surface area covered by DLT maculopapular rash: 70-80%
450mg once-daily, 3 patients
  Patients with DLT (grade 3 maculopapular rash): 2 of 3 and 2
28/28 schedule (330mg, 340mg, 400mg)
  DLT on continuous schedule: no DLT was observed
All 60 patients
  Treatment-related deaths: no treatment-related deaths
[10]
  Decreased appetite, no. of patients with treatment-related AE: 14
  Fatigue, no. of patients with treatment-related AE: 21
  Nausea, no. of patients with treatment-related AE: 28
  Rash (all rash preferred terms), no. of patients with treatment-related AE: 14
  Vomiting, no. of patients with treatment-related AE: 15
  Xeroderma, no. of patients with treatment-related AE: 8
[11]
  Any treatment-related adverse event, no. of patients: 9
  Decreased appetite, no. of patients with treatment-related AE: 0
  Diarrhea, no. of patients with treatment-related AE: 1
  Dysgeusia, no. of patients with treatment-related AE: 0
  Fatigue, no. of patients with treatment-related AE: 0
  Nausea, no. of patients with treatment-related AE: 0
  Rash (all rash preferred terms), no. of patients with treatment-related AE: 5
  Vomiting, no. of patients with treatment-related AE: 0
  Xeroderma, no. of patients with treatment-related AE: 1
Continuous once-daily oral dosing
  Recommended Phase II dose (RP2D): 330 mg
Up to 330mg (21/28 schedule)
  Tolerability: well-tolerated
Whole study
  Patients with grade ≥3 hyperglycemia: 1
